Results: ChEMBL document CHEMBL1949506, “Discovery of CS-2100, a potent, orally active and S1P3-sparing S1P1 agonist” (Bioorg Med Chem Lett, 2012)

Assays:
[1] = biological target: Sphingosine 1-phosphate receptor 1 (Homo sapiens, UniProt P21453); assay: Agonist activity at human S1P1 receptor assessed as stimulation of [35S]GTPgamma binding; format: functional
[2] = biological target: Sphingosine 1-phosphate receptor 3 (Homo sapiens, UniProt Q99500); assay: Agonist activity at human S1P3 receptor assessed as stimulation of [35S]GTPgamma binding; format: functional
Homo sapiens = species on record: Homo sapiens; assay: Selectivity ratio of EC50 for human S1P3 receptor to EC50 for human S1P1 receptor
Rattus norvegicus [3] = assay: Immunosuppressive activity in po dosed LEW rat model assessed as inhibition of WKAH rat spleen cells-induced popliteal lymph node swelling administered qd for 4 days measured at day 4 by host versus graft reaction analysis; format: functional; details: 96 h, read-out: ID50 (the source's name)
Rattus norvegicus [4] = assay: Immunosuppressive activity in LEW rat model assessed as inhibition of WKAH rat spleen cells-induced popliteal lymph node swelling at 1 mg/kg, po administered qd for 4 days measured at day 4 by host versus graft reaction analysis; format: functional; details: 96 h

Sphingosine 1-phosphate receptor 3, sequence (Q99500 whole entry): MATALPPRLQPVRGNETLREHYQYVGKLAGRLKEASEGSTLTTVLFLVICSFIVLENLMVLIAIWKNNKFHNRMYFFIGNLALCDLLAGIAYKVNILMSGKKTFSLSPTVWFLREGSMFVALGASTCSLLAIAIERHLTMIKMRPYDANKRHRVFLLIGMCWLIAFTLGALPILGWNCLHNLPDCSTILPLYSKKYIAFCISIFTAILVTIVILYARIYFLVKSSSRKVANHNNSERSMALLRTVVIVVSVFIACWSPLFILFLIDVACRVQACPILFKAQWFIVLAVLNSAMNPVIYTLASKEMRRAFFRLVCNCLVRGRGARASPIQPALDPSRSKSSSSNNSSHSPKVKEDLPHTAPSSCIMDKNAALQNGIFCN
Sphingosine 1-phosphate receptor 1, sequence (P21453 whole entry): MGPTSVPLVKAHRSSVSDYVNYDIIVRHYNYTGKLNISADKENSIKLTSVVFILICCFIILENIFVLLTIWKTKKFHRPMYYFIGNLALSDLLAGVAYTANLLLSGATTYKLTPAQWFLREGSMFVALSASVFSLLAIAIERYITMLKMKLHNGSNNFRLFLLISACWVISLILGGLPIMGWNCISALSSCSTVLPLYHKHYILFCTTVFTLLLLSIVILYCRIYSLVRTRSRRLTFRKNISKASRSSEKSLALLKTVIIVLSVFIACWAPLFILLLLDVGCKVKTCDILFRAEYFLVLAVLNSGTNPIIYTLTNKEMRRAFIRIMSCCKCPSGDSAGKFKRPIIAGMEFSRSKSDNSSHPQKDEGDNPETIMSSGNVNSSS

Row | Structure (SMILES) | EC50 [1] | EC50 [2] | Ratio EC50 (Homo sapiens) | ED50 (Rattus norvegicus [3]) | inhibition in vivo at 1 mg/kg (Rattus norvegicus [4])
1 | Cc1ccc(Oc2ccc(-c3nc(-c4csc(CN5CC(C(=O)O)C5)c4)no3)cc2)cc1 | 110 nM | 12 µM | 109 |  | 
2 | Cc1cc(CN2CC(C(=O)O)C2)sc1-c1noc(-c2ccc(Oc3ccccc3)cc2)n1 | 11 nM | > 20 µM | > 1820 |  | 
3 | O=C(O)C1CN(Cc2csc(-c3noc(-c4ccc(Oc5ccccc5)cc4)n3)c2)C1 | 34 nM | > 20 µM | > 588 |  | 
4 | O=C(O)C1CN(Cc2cc(-c3noc(-c4ccc(-c5ccccc5)cc4)n3)cs2)C1 | 30 nM | > 20 µM | > 666 |  | 
5 | CCCc1cc(CN2CC(C(=O)O)C2)sc1-c1noc(-c2ccc(Oc3ccccc3)cc2)n1 | 30 nM | 13 µM | 433 |  | 
6 | CCc1cc(CN2CC(C(=O)O)C2)sc1-c1noc(-c2ccc(Oc3ccccc3F)cc2)n1 | 8.5 nM | > 20 µM |  | 0.369 mg/kg | 
7 | CCc1cc(CN2CC(C(=O)O)C2)sc1-c1noc(-c2ccc(Oc3ccccc3)c(OC)c2)n1 | 14 nM | > 20 µM |  |  | 
8 | O=C(O)C1CN(Cc2cc(-c3noc(-c4cccc(-c5ccccc5)c4)n3)cs2)C1 | 850 nM | > 20 µM | > 23 |  | 
9 | O=C(O)C1CN(Cc2cc(-c3noc(-c4ccc(OCc5ccccc5)cc4)n3)cs2)C1 | > 20000 nM | > 20 µM |  |  | 
10 | CCCc1ccccc1Oc1ccc(-c2nc(-c3sc(CN4CC(C(=O)O)C4)cc3CC)no2)cc1 | 13 nM | > 20 µM |  |  | 56%
11 | Cc1cc(-c2noc(-c3ccc(Oc4ccccc4)cc3)n2)sc1CN1CC(C(=O)O)C1 | 25 nM | > 20 µM | > 800 |  | 
12 | Cc1ccccc1Oc1ccc(-c2nc(-c3csc(CN4CC(C(=O)O)C4)c3)no2)cc1 | 35 nM | 2 µM | 57 |  | 
13 | O=C(O)C1CN(Cc2cc(-c3noc(-c4ccc(Oc5ccccc5)cc4)n3)cs2)C1 | 8.5 nM | 4.6 µM | 541 |  | 
14 | Cc1cc(-c2nc(-c3csc(CN4CC(C(=O)O)C4)c3)no2)ccc1Oc1ccccc1 | 21 nM | 3 µM | 142 |  | 
15 | CCc1cc(CN2CC(C(=O)O)C2)sc1-c1noc(-c2ccc(Oc3ccccc3)c(C)c2)n1 | 7.5 nM | 6 µM |  |  | 
16 | Cc1cccc(Oc2ccc(-c3nc(-c4csc(CN5CC(C(=O)O)C5)c4)no3)cc2)c1 | 200 nM | > 20 µM | > 100 |  | 
17 | CCCOc1ccc(-c2nc(-c3csc(CN4CC(C(=O)O)C4)c3)no2)cc1 | 60 nM | > 20 µM | > 333 |  | 
18 | Cc1cc(Oc2ccccc2)ccc1-c1nc(-c2csc(CN3CC(C(=O)O)C3)c2)no1 | 600 nM | > 20 µM | > 33 |  | 
19 | CCc1cc(-c2noc(-c3ccc(Oc4ccccc4)cc3)n2)sc1CN1CC(C(=O)O)C1 | 12 nM | > 20 µM | > 1670 |  | 
20 | CCCCc1ccccc1Oc1ccc(-c2nc(-c3sc(CN4CC(C(=O)O)C4)cc3CC)no2)cc1 | 9 nM | > 20 µM |  |  | 66%
21 | CC(C)c1cc(CN2CC(C(=O)O)C2)sc1-c1noc(-c2ccc(Oc3ccccc3)cc2)n1 | 75 nM | 15 µM | 200 |  | 

Now those with a lower EC50 [1], led by results:

Row | EC50 [1] | EC50 [2] | Ratio EC50 (Homo sapiens) | Structure (SMILES) | ED50 (Rattus norvegicus [3]) | inhibition in vivo at 1 mg/kg (Rattus norvegicus [4])
22 | 4.2 nM | 1.6 µM | 380 | O=C(O)C1CN(Cc2ccc(-c3noc(-c4cc(-c5ccccc5)c(C(F)(F)F)s4)n3)cc2)C1 |  | 
23 | 5 nM | > 20 µM |  | CCc1cc(CN2CC(C(=O)O)C2)sc1-c1noc(-c2ccc(Oc3ccccc3)c(Cl)c2)n1 |  | 49%
24 | 4.5 nM | 11 µM |  | CCc1cc(CN2CC(C(=O)O)C2)sc1-c1noc(-c2ccc(Oc3ccccc3C(C)C)cc2)n1 |  | 
25 | 3 nM | 4.5 µM |  | CCc1cc(CN2CC(C(=O)O)C2)sc1-c1noc(-c2ccc(Oc3ccccc3C)cc2)n1 |  | 35%
26 | 1 nM | 0.9 µM | 900 | O=C(O)C1CN(Cc2ccc(-c3noc(-c4ccc(Oc5ccccc5)cc4)n3)s2)C1 |  | 
27 | 6.5 nM | 0.8 µM | 123 | O=C(O)C1CN(Cc2cc(-c3noc(-c4cc(-c5ccccc5)c(C(F)(F)F)s4)n3)cs2)C1 |  | 
28 | 6.5 nM | 10 µM |  | CCc1ccccc1Oc1ccc(-c2nc(-c3sc(CN4CC(C(=O)O)C4)cc3CC)no2)cc1 |  | 62%
29 | 4 nM | > 20 µM | > 5000 | CCc1cc(CN2CC(C(=O)O)C2)sc1-c1noc(-c2ccc(Oc3ccccc3)cc2)n1 | 0.407 mg/kg | 
30 | 5 nM | > 20 µM |  | CCc1cc(CN2CC(C(=O)O)C2)sc1-c1noc(-c2ccc(Oc3ccccc3)c(F)c2)n1 | 0.142 mg/kg | 
31 | 4 nM | 15 µM |  | CCc1cc(CN2CC(C(=O)O)C2)sc1-c1noc(-c2ccc(Oc3ccccc3OC)cc2)n1 |  | 74%
32 | 6.5 nM | > 20 µM |  | CCc1cc(CN2CC(C(=O)O)C2)sc1-c1noc(-c2ccc(Oc3ccccc3Cl)cc2)n1 | 0.461 mg/kg | 
